Assay [1] deals with Beta-2 adrenergic receptor (Homo sapiens, UniProt P07550). Put plainly: DRUGMATRIX: Adrenergic beta2 radioligand binding (ligand: [3H] CGP-12177). The assay is classed as cell membranes, CHO, Membrane. To be noted: cho; Not Active = under 50% inhibition at 10 µM.
Assay [2] is described as follows: DRUGMATRIX: Imidazoline I2, Central radioligand binding (ligand: [3H] Idazoxan). The assay is classed as cell membranes, Rattus norvegicus, Wistar, Cerebral cortex, Membrane. To be noted: Not Active = under 50% inhibition at 10 µM.
A short description of assay [3]: DRUGMATRIX: Leukotriene, BLT (LTB4) radioligand binding (ligand: [3H]LTB4). The assay is classed as cell membranes, Membrane. Conditions: u-937; Not Active = under 50% inhibition at 10 µM.
Assay [4] in a line: DRUGMATRIX: GABAA, Flunitrazepam, Central radioligand binding (ligand: [3H] Flunitrazepam). The assay is classed as cell membranes, Rattus norvegicus, Wistar, Brain, Membrane. Conditions: Not Active = under 50% inhibition at 10 µM.
The target in assay [5] is C-C chemokine receptor type 5 (Homo sapiens, UniProt P51681). The assay is classed as cell membranes, Membrane. Conditions: hek293. Note: in other assays of this panel Not Active means under 50% inhibition at 10 µM.
For assay [6], the target named is C-C chemokine receptor type 2 (Homo sapiens, UniProt P41597). It counts as cell membranes, Membrane. Conditions: cho-k1. Note: in other assays of this panel Not Active means under 50% inhibition at 10 µM.
Another assay deals with T1, Adenosine receptor A3 (Homo sapiens, UniProt P0DMS8).
T1 sequence (P0DMS8 whole entry): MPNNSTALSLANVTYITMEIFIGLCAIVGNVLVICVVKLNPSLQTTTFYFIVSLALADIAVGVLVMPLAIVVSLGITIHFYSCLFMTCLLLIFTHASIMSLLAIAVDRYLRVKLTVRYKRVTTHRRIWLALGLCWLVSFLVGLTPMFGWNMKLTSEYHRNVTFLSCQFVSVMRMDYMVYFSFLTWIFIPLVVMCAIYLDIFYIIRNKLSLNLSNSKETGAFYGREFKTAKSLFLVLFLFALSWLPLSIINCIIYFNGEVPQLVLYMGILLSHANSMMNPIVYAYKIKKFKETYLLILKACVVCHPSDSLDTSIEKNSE
It counts as cell membranes, CHO-K1, Membrane.

C-C chemokine receptor type 5, sequence (P51681 whole entry): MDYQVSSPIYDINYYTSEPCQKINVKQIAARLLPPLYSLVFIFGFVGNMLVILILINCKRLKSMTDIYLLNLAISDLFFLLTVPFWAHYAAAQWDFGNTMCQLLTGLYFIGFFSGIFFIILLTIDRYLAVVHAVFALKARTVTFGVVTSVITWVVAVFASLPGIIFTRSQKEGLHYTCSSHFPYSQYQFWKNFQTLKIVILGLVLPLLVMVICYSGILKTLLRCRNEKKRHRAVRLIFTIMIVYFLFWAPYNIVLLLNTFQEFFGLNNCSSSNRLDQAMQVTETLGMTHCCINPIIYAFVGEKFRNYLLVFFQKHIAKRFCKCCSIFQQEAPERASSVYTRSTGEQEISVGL
C-C chemokine receptor type 2, sequence (P41597 whole entry): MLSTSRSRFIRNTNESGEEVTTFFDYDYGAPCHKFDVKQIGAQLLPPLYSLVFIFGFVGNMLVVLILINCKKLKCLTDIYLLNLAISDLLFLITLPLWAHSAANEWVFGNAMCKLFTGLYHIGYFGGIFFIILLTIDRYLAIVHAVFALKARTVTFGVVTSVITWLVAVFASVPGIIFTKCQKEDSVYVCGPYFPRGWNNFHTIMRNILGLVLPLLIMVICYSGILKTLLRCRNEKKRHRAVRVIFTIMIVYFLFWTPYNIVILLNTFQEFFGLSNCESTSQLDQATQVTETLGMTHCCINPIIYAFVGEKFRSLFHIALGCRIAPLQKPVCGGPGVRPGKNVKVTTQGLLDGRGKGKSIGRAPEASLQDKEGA

Consider SODIUM ORTHOVANAD, for which the IC50 result in assay [1], in assay [2], in assay [3], in assay [4], in assay [5] and in assay [6] was “Not Active” in each case. In addition, the IC50 result on Adenosine receptor A3 (cho-k1) was “Not Active”. For the same compound, the Ki result in assay [1], in assay [2], in assay [3], in assay [4], in assay [5] and in assay [6] was “Not Active” in each case. For the same compound, at Adenosine receptor A3 (cho-k1), the inhibition constant Ki result is reported as “Not Active”.
`Cn1c(=O)c2nc[nH]c2n(C)c1=O.O` [THEOPHYLLINE]: the IC50 result in assay [1], in assay [2], in assay [3], in assay [4], in assay [5] and in assay [6] was “Not Active” throughout. The IC50 result on Adenosine receptor A3 (cho-k1) was “Not Active”. Also, the Ki entry in assay [2], in assay [3] and in assay [4] was “Not Active” in each case.
Take `CO[C@@H]1[C@@H](OC)[C@H](C)[C@@](O)(CC(=O)O)O[C@H]1[C@H](C)[C@H]1O[C@@]2(CC[C@@](C)([C@H]3CC[C@@](C)([C@@H]4O[C@@H]([C@H]5O[C@](C)(O)[C@H](C)C[C@@H]5C)C[C@@H]4O[C@@H]4C[C@H](OC)[C@@H](OC)[C@H](C)O4)O3)O2)C[C@H](O)[C@H]1C` [MADURAMICIN ACID]: the IC50 entry was “Not Active” in assay [1]; 0.607 µM in assay [2] (read-out: IC50); “Not Active” in assay [3]; “Not Active” in assay [4]; “Not Active” in assay [5]; “Not Active” in assay [6]. On Adenosine receptor A3 (cho-k1), the IC50 result was “Not Active”. Besides, the Ki in assay [2] (read-out: Ki) is 0.405 µM; in assay [3], “Not Active”; in assay [4], “Not Active”.
Take `CCN(CC)CC(=O)Nc1c(C)cccc1C` [LIDOCAINE]: the IC50 result in assay [1], in assay [2], in assay [3], in assay [4], in assay [5] and in assay [6] was “Not Active” each time. For the same compound, the IC50 result against Adenosine receptor A3 (cho-k1) was “Not Active”. The Ki entry in assay [2], in assay [3] and in assay [4] was “Not Active” in each case.
`CN(C/C=C/C#CC(C)(C)C)Cc1cccc2ccccc12` [TERBINAFINE]: the IC50 entry in assay [1], in assay [2], in assay [3], in assay [4], in assay [5] and in assay [6] was “Not Active” each time. Besides, the half-maximal inhibitory concentration (IC50) result against Adenosine receptor A3 (cho-k1) is “Not Active”. Also, the Ki result in assay [2], in assay [3] and in assay [4] was “Not Active” each time.
On to `CCCCNc1ccc(C(=O)OCCN(C)C)cc1` [TETRACAINE], for which the IC50 result in assay [1], in assay [2], in assay [3], in assay [4], in assay [5] and in assay [6] was “Not Active” each time. In addition, the IC50 result on Adenosine receptor A3 (cho-k1) is “Not Active”. The Ki entry in assay [2], in assay [3] and in assay [4] was “Not Active” in each case.
Turning to `CC[C@@H](C(=O)[C@@H](C)[C@@H](O)[C@H](C)[C@@H]1O[C@@H]([C@@H](CC)C(=O)O)CC[C@@H]1C)[C@H]1O[C@]2(C=C[C@@H](O)[C@]3(CC[C@@](C)([C@H]4CC[C@](O)(CC)[C@H](C)O4)O3)O2)[C@H](C)C[C@@H]1C` [SALINOMYCIN], the IC50 entry in assay [1], in assay [2], in assay [3], in assay [4], in assay [5] and in assay [6] was “Not Active” in each case. Also, the IC50 entry against Adenosine receptor A3 (cho-k1) was “Not Active”. The Ki entry in assay [2], in assay [3] and in assay [4] was “Not Active” in each case.
For the compound `Cc1c(C)c2c(c(C)c1O)CCC(C)(CN1CCN(c3cc(N4CCCC4)nc(N4CCCC4)n3)CC1)O2` (centres undefined), the IC50 entry in assay [1], in assay [2], in assay [3], in assay [4], in assay [5] and in assay [6] was “Not Active” each time. Besides, the IC50 on Adenosine receptor A3 (read-out: IC50) worked out at 10.8 µM. In addition, the inhibition constant Ki entry was “Not Active” in assay [2], “Not Active” in assay [3], “Not Active” in assay [4] and 6.08 µM at Adenosine receptor A3 (read-out: Ki).
Consider `Clc1ccccc1CN1CCc2sccc2C1` [TICLOPIDINE], for which the IC50 entry was “Not Active” in assay [1]; 2.24 µM in assay [2] (read-out: IC50); “Not Active” in assay [3]; “Not Active” in assay [4]; “Not Active” in assay [5]; “Not Active” in assay [6]. In addition, the 50% inhibitory concentration (IC50) result at Adenosine receptor A3 (cho-k1) is recorded as “Not Active”. The results for the Ki in assay [2] (read-out: Ki), in assay [3] and in assay [4] were 1.49 µM, “Not Active” and “Not Active”, respectively.
For `CS(=O)(=O)c1ccc([C@@H](O)[C@@H](CO)NC(=O)C(Cl)Cl)cc1` [THIAMPHENICOL], the IC50 entry in assay [1], in assay [2], in assay [3], in assay [4], in assay [5] and in assay [6] was “Not Active” each time. The IC50 entry at Adenosine receptor A3 (cho-k1) was “Not Active”. Besides, the Ki result in assay [2], in assay [3] and in assay [4] was “Not Active” in each case.
As for `O=C(Oc1ccccc1C(=O)O)c1ccccc1O` [SALSALATE], the IC50 entry in assay [1], in assay [2], in assay [3], in assay [4], in assay [5] and in assay [6] was “Not Active” throughout. For the same compound, at Adenosine receptor A3 (cho-k1), the IC50 entry was “Not Active”. For the same compound, the Ki result in assay [2], in assay [3] and in assay [4] was “Not Active” throughout.
On to MANGANESE CHLORIDE ANHYDROUS, for which the IC50 entry in assay [1], in assay [2], in assay [3], in assay [4], in assay [5] and in assay [6] was “Not Active” each time. Also, the IC50 entry at Adenosine receptor A3 (cho-k1) was “Not Active”. The Ki result in assay [1], in assay [2], in assay [3], in assay [4], in assay [5] and in assay [6] was “Not Active” throughout. In addition, the Ki result on Adenosine receptor A3 (cho-k1) is recorded as “Not Active”.
In the case of `O.O.O.O.O.O.[Cl-].[Cl-].[Sr+2]` [STRONTIUM CHLORIDE HEXAHYDRATE], the IC50 entry in assay [1], in assay [2], in assay [3], in assay [4], in assay [5] and in assay [6] was “Not Active” in each case. Moreover, at Adenosine receptor A3 (cho-k1), the IC50 result is on record as “Not Active”. For the same compound, the Ki result in assay [2], in assay [3] and in assay [4] was “Not Active” throughout.
`Nc1cc(N2CCCCC2)nc(N)[n+]1[O-]` [MINOXIDIL]: the IC50 result in assay [1], in assay [2], in assay [3], in assay [4], in assay [5] and in assay [6] was “Not Active” each time. Besides, the IC50 result on Adenosine receptor A3 (cho-k1) is “Not Active”. The Ki result in assay [2], in assay [3] and in assay [4] was “Not Active” throughout.
For `CO[C@H]1/C=C/O[C@@]2(C)Oc3c(C)c(O)c4c(O)c(c(/C=N/N5CCN(C6CCCC6)CC5)c(O)c4c3C2=O)NC(=O)/C(C)=C\C=C\[C@H](C)[C@H](O)[C@@H](C)[C@@H](O)[C@@H](C)[C@H](OC(C)=O)[C@@H]1C` [RIFAPENTINE], the IC50 result in assay [1], in assay [2], in assay [3], in assay [4], in assay [5] and in assay [6] was “Not Active” each time. The IC50 entry on Adenosine receptor A3 (cho-k1) is given as “Not Active”. In addition, the Ki entry in assay [2], in assay [3] and in assay [4] was “Not Active” in each case.
As to `Cc1cccc(C)c1OCC(C)N` (centres undefined) [MEXILETINE], the IC50 result in assay [1], in assay [2], in assay [3], in assay [4], in assay [5] and in assay [6] was “Not Active” each time. Moreover, the half-maximal inhibitory concentration (IC50) entry at Adenosine receptor A3 (cho-k1) is “Not Active”. Further, the Ki result in assay [2], in assay [3] and in assay [4] was “Not Active” throughout.
Take `COc1c2occc2cc2ccc(=O)oc12` [METHOXSALEN]: the IC50 entry in assay [1], in assay [2], in assay [3], in assay [4], in assay [5] and in assay [6] was “Not Active” in each case. Besides, at Adenosine receptor A3 (cho-k1), the IC50 entry is given as “Not Active”. In addition, the inhibition constant (Ki) entry in assay [2], in assay [3] and in assay [4] was “Not Active” throughout.

Source of the values: ChEMBL document CHEMBL1909046, “DrugMatrix in vitro pharmacology data”.
